From US20090061022A1, “Pharmaceutical composition comprising arsenite for the treatment of malignancy” (priority 2004, published 2009)
Values joined by “and” are separate entries in the source; they are usually repeats but may differ in a detail not shown here. Identical values can stand only once.

Tests used:
ALL-SCID 4 = test: Anticancer activity in human leukemia model ALL-SCID 4; conditions: for BW loss % (day) / Drug-related deaths / T/C %: days 25-35
Description: Anticancer activity of the sodium meta-arsenite and arsenic trioxide against two human paediatric acute lymphoblastic leukemia (ALL) models in vivo, ALL-SCID 4 was investigated to compare.
Male NOD/SCID mice (deficient in T and B lymphocytes, NK cells and functional macrophages) were transplanted s.c. on day 0 with fragments of ALL-SCID 4 cancers, which were obtained from mice used for routine passage of the cancers. Mice were randomized to the scheduled treatment groups.
Sodium meta-arsenite was administered orally at 2, 4 and 6 mg/kg/day (⅓ MTD, ⅔ MTD and MTD) once every day from day 34-54 after transplantation. The vehicle control (5% glucose in water) was administered i.p. (10 ml/kg).
Sodium meta-arsenite was dissolved in ready-to-use sterile infusion (5% (w/v) glucose in aqua injectabila). Arsenic trioxide was dissolved in 25 mM NaOH then dissolved in 5% glucose in aqua injectabila. The solutions were prepared freshly on the day of therapy for each administration.

RXF 944LX = test: Dose finding study in human renal cancer model RXF 944LX in nude mice (i.p. days 0, 7, 14); conditions: for BW loss % (day) / Drug-related deaths / Rating / SGD (specific growth delay) / T/C %: days 0, 7, 14
Description: In a dose finding study, the potential anticancer activity of sodium meta-arsenite and arsenic acid sodium salt versus arsenic trioxide was examined in the human renal cancer model, RXF 944LX.
Cancer fragments (1-2 mm in diameter), obtained from xenografts in serial passage in nude mice, were implanted subcutaneously (S.C.) in a flank of male NRMI nude mice (one fragment per mouse). Mice with appropriate cancer volumes (5-7 mm in diameter) were randomly distributed to treatment and control groups (4 mice/group). The start of treatment was day 0. Cancer volume and body weights were measured at least twice per week.
1) Sodium meta-arsenite (3, 10, 30 mg/kg/day), 2) Arsenic acid sodium salt (3, 10, 30 mg/kg/day) and 3) Arsenic trioxide (3, 10, 30 mg/kg/day) were administered intraperitoneally (i.p.) once daily on days 0, 7 and 14.
Stock solution of sodium meta-arsenite and arsenic acid sodium salt (3 mg/ml) were prepared in 5% (w/v) dextrose solution, respectively, to minimize acute arsenic toxicity. For arsenic trioxide, 9 mg of arsenic trioxide was dissolved in 1M NaOH (75 μl) followed by mixing with sterile aqua injectabilia (2175 μl) and sterile 20% (w/v) dextrose in water (500 μl). Further dilution to the desired concentration was done with a 5% dextrose solution to give a final concentration of 3 mg/ml.
The cancer volume of each animal was determined by two-dimensional measurement using calipers. The volume was calculated according to the formula: (a×b^2)×0.5; wherein a and b represent two perpendicular diameters in which a (length) is the larger diameter and b (width) the smaller diameter.
Relative cancer volumes (RCV) were calculated for each individual cancer by dividing the cancer volume on day X by the cancer volume on day 0 multiplied by 100%. The cancer volume of a treatment group was expressed as the median RCV of all mice of the group. Median RCV values were used for drawing growth curves and treatment evaluation. Optimal cancer growth inhibition at a particular day within the treatment period was calculated from the median RCV values of the treated (T) versus the controlled (C) group multiplied by 100%. A T/C value<50% was considered as anti-cancer activity.

[1] = test system: panel of forty-one (41) human cancer cell lines; test: Cytotoxic activity, panel of forty-one (41) human cancer cell lines
Description: In a next study, the cytotoxic activity of sodium meta-arsenite was head-to-head compared with arsenic trioxide in panels loaded with 41 cancer cell lines from ten human cancers.

[2] = cold water; cited from earlier work
[3] = rats, orally; cited from earlier work
[4] = 10 mg/kg i.p., listed as arsenic trioxide
[5] = panel of 41 human cancer cell lines

Substance: arsenic trioxide
- BW loss % (day) (ALL-SCID 4; 2 mg/kg i.p.): +9 (34) %
- Drug-related deaths (ALL-SCID 4; 2 mg/kg i.p.): 0/8
- T/C % (ALL-SCID 4; 2 mg/kg i.p.): 71%
- BW loss % (day) (ALL-SCID 4; 4 mg/kg i.p.): +10 (34) %
- Drug-related deaths (ALL-SCID 4; 4 mg/kg i.p.): 0/8
- T/C % (ALL-SCID 4; 4 mg/kg i.p.): 97%
- BW loss % (day) (ALL-SCID 4; 6 mg/kg i.p.): +10 (34) %
- Drug-related deaths (ALL-SCID 4; 6 mg/kg i.p.): 0/8
- T/C % (ALL-SCID 4; 6 mg/kg i.p.): 58%
- MTD (ALL-SCID 4; small dose finding studies prior to the ALL-SCID 4 study): 6 mg/kg/day
- BW loss % (day) (RXF 944LX; 3 mg/kg i.p.): +8.4 (14) %
- Drug-related deaths (RXF 944LX; 3 mg/kg i.p.): 0/4
- Rating (RXF 944LX; 3 mg/kg i.p.): + (+T/C < 50)
- SGD (specific growth delay) (RXF 944LX; 3 mg/kg i.p.): −0.1
- T/C % (RXF 944LX; 3 mg/kg i.p.): 31%
- BW loss % (day) (RXF 944LX; 10 mg/kg i.p.): −5.0 (11) %
- Drug-related deaths (RXF 944LX; 10 mg/kg i.p.): 1/4
- Rating (RXF 944LX; 10 mg/kg i.p.): + (+T/C < 50)
- SGD (specific growth delay) (RXF 944LX; 10 mg/kg i.p.): −0.2
- T/C % (RXF 944LX; 10 mg/kg i.p.): 41%
- BW loss % (day) (RXF 944LX; [4]): 5%
- Drug-related deaths (RXF 944LX; [4]): one (1) out of four (4) mice died
- Drug-related deaths (RXF 944LX; 30 mg/kg i.p.): 4/4
- Drug-related deaths (RXF 944LX; 30 mg/kg i.p., listed as arsenic trioxide): died within a few days after the first injection
- Maximum Tolerated Dose (MTD) (RXF 944LX; i.p. once daily on days 0, 7 and 14, RXF 944LX bearing nude mice): 10 mg/kg/day
- activity in panel of 41 ([1]; 0.1 μg/ml, 0.01 μg/ml and 0.001 μg/ml): no observed activity
- cancer cell lines that responded, percent of 41 ([1]; 1 μg/ml, more than 70% growth inhibition): 2%
- cancer cell lines in which active, percent of 41 ([1]; 10 μg/ml): 56%
- selectivity (individual IC70<½ mean IC70), fraction of cell lines ([1]; breast (mammary) cancer cell lines): ¼
- selectivity (individual IC70<½ mean IC70), fraction of cell lines ([1]; leukemia cell lines): ¾
- selectivity (individual IC70<½ mean IC70), fraction of cell lines ([1]; melanoma cell lines): 2/7
- fold less potent compared to sodium meta-arsenite, IC50 ([1]; on the basis of μM): 17 fold
- fold less potent compared to sodium meta-arsenite, IC70 ([1]; on the basis of μM): 12 fold
- fold less potent compared to sodium meta-arsenite, IC50 ([1]; on μg/ml): 27 fold
- fold less potent compared to sodium meta-arsenite, IC70 ([1]; on μg/ml): 18 fold
- Mean IC50 [1, 5]: 3.462 µg/mL
- Mean IC70 [1, 5]: 6.022 μg/ml and 30.44 μM
- Mean IC90 [1, 5]: 10.307 µg/mL
- Mean IC70 ([1]; panel of 41 human cancer cell lines, listed as arsenic trioxide): 6.022 μg/ml and 30.44 μM
- IC50 ([1]; read-out: Mean IC50, panel of 41 human cancer cell lines): 17.5 µM
- IC90 ([1]; read-out: Mean IC90, panel of 41 human cancer cell lines): 52.1 µM
- Solubility [2]: sparingly and extremely slowly soluble
- LD50 [3]: 15.1 mg/kg
